Here are results for one compound from paper PMC5218480 (PLoS ONE, 2017).

The test system of this test is MV-4-11 cells. Kind of test: Gene expression microarray analysis (Affymetrix PrimeView) and GSEA. It is filed as cell-based, human. On the set-up: RFU PODN (11730768_x_at) / Fold change /veh PODN (11730768_x_at) / RFU LINC00158 (11744669_a_at) / Fold change /veh LINC00158 (11744669_a_at) / RFU DUSP10 (11751237_a_at) / Fold change /veh DUSP10 (11751237_a_at) / RFU ID3 (11757404_x_at) / Fold change /veh ID3 (11757404_x_at) / RFU PLEKHG5 (11737974_s_at) / Fold change /veh PLEKHG5 (11737974_s_at) / RFU LRRC4B (11730491_at) / Fold change /veh LRRC4B (11730491_at) / RFU GIMAP4 (11747438_a_at) / Fold change /veh GIMAP4 (11747438_a_at) / RFU KRT8 (11758183_x_at) / Fold change /veh KRT8 (11758183_x_at) / RFU CNN1 (11734310_a_at) / Fold change /veh CNN1 (11734310_a_at) / RFU VPS37D (11726825_at) / Fold change /veh VPS37D (11726825_at) / RFU C10orf10 (11716522_x_at) / Fold change /veh C10orf10 (11716522_x_at) / RFU KIR2DL2 /// KIR2DL4 /// KIR2DL5A /// KIR2DL5B /// KIR2DS1 /// KIR2DS2 /// KIR2DS3 /// KIR2DS4 /// KIR3DL3 /// KIR3DL3 /// KIR3DS1 (11738374_at) / Fold change /veh KIR2DL2 /// KIR2DL4 /// KIR2DL5A /// KIR2DL5B /// KIR2DS1 /// KIR2DS2 /// KIR2DS3 /// KIR2DS4 /// KIR3DL3 /// KIR3DL3 /// KIR3DS1 (11738374_at) / RFU C1QL1 (11718748_at) / Fold change /veh C1QL1 (11718748_at) / RFU TMPRSS4 (11747572_a_at) / Fold change /veh TMPRSS4 (11747572_a_at) / RFU HAMP (11756126_x_at) / Fold change /veh HAMP (11756126_x_at) / RFU RNFT2 (11725882_a_at) / Fold change /veh RNFT2 (11725882_a_at) / RFU NR4A2 (11747474_a_at) / Fold change /veh NR4A2 (11747474_a_at) / RFU ABCC12 (11746883_a_at) / Fold change /veh ABCC12 (11746883_a_at) / RFU TMEM136 (11760407_x_at) / Fold change /veh TMEM136 (11760407_x_at) / RFU CLDN22 /// WWC2 (11732394_at) / Fold change /veh CLDN22 /// WWC2 (11732394_at) / RFU HLA-DPB1 (11760878_x_at) / Fold change /veh HLA-DPB1 (11760878_x_at) / RFU SPINT1 (11716480_a_at) / Fold change /veh SPINT1 (11716480_a_at) / RFU GAP43 (11754022_s_at) / Fold change /veh GAP43 (11754022_s_at) / RFU A4GNT (11735810_at) / Fold change /veh A4GNT (11735810_at) / RFU PRB3 (11715151_x_at) / Fold change /veh PRB3 (11715151_x_at) / RFU TUBB4B (11761932_at) / Fold change /veh TUBB4B (11761932_at) / RFU CAPN14 (11732068_a_at) / Fold change /veh CAPN14 (11732068_a_at) / RFU TMCC2 (11721928_a_at) / Fold change /veh TMCC2 (11721928_a_at) / RFU IRGQ (11745062_a_at) / Fold change /veh IRGQ (11745062_a_at) / RFU FAM174B (11720279_a_at) / Fold change /veh FAM174B (11720279_a_at) / RFU TMPRSS4 (11748680_a_at) / Fold change /veh TMPRSS4 (11748680_a_at) / RFU FAM212B (11763350_a_at) / Fold change /veh FAM212B (11763350_a_at) / RFU PLEKHG5 (11743358_a_at) / Fold change /veh PLEKHG5 (11743358_a_at) / RFU ZSCAN30 (11745921_a_at) / Fold change /veh ZSCAN30 (11745921_a_at) / RFU CMKLR1 (11741424_a_at) / Fold change /veh CMKLR1 (11741424_a_at) / RFU LOC101060620 /// MAPK8IP1 (11723275_at) / Fold change /veh LOC101060620 /// MAPK8IP1 (11723275_at) / RFU SPTSSB (11747773_x_at) / Fold change /veh SPTSSB (11747773_x_at) / RFU PRSS12 (11739890_at) / Fold change /veh PRSS12 (11739890_at) / RFU BIN1 (11741810_x_at) / Fold change /veh BIN1 (11741810_x_at) / RFU WNT11 (11732464_a_at) / Fold change /veh WNT11 (11732464_a_at) / RFU C10orf10 (11716521_a_at) / Fold change /veh C10orf10 (11716521_a_at) / RFU C5orf56 (11738089_at) / Fold change /veh C5orf56 (11738089_at) / RFU CYB561 (11721691_x_at) / Fold change /veh CYB561 (11721691_x_at) / RFU ANKRD19P (11752326_a_at) / Fold change /veh ANKRD19P (11752326_a_at) / RFU OR2T12 /// OR2T33 /// OR2T8 (11738714_s_at) / Fold change /veh OR2T12 /// OR2T33 /// OR2T8 (11738714_s_at) / RFU VCAN (11748164_a_at) / Fold change /veh VCAN (11748164_a_at) / RFU JSRP1 (11732532_at) / Fold change /veh JSRP1 (11732532_at) / RFU KRTAP10-11 (11738290_x_at) / Fold change /veh KRTAP10-11 (11738290_x_at) / RFU MYO3A (11730013_a_at) / Fold change /veh MYO3A (11730013_a_at) / RFU EBF3 (11725865_a_at) / Fold change /veh EBF3 (11725865_a_at) / RFU CAMK2N1 (11719241_x_at) / Fold change /veh CAMK2N1 (11719241_x_at) / RFU C5orf56 (11738088_a_at) / Fold change /veh C5orf56 (11738088_a_at) / RFU OLFML3 (11715873_a_at) / Fold change /veh OLFML3 (11715873_a_at) / RFU LOC100653217 /// NTM (11731650_a_at) / Fold change /veh LOC100653217 /// NTM (11731650_a_at) / RFU MAPK11 (11762145_a_at) / Fold change /veh MAPK11 (11762145_a_at) / RFU FIZ1 (11724087_x_at) / Fold change /veh FIZ1 (11724087_x_at) / RFU OASL (11726364_x_at) / Fold change /veh OASL (11726364_x_at) / RFU SOX15 (11748057_x_at) / Fold change /veh SOX15 (11748057_x_at) / RFU CD79A (11719716_a_at) / Fold change /veh CD79A (11719716_a_at) / RFU HIST1H1D (11736915_at) / Fold change /veh HIST1H1D (11736915_at) / RFU CASKIN2 (11723855_a_at) / Fold change /veh CASKIN2 (11723855_a_at) / RFU LOC730098 (11760151_x_at) / Fold change /veh LOC730098 (11760151_x_at) / RFU OR4N2 (11742367_at) / Fold change /veh OR4N2 (11742367_at) / RFU PRRT2 (11749266_a_at) / Fold change /veh PRRT2 (11749266_a_at) / RFU SNX32 (11753110_a_at) / Fold change /veh SNX32 (11753110_a_at) / RFU CDHR5 (11726645_a_at) / Fold change /veh CDHR5 (11726645_a_at) / RFU RCAN1 (11760418_a_at) / Fold change /veh RCAN1 (11760418_a_at) / RFU FAM167A (11723789_a_at) / Fold change /veh FAM167A (11723789_a_at) / RFU FAM26E (11764081_at) / Fold change /veh FAM26E (11764081_at) / RFU ISYNA1 (11749810_s_at) / Fold change /veh ISYNA1 (11749810_s_at) / RFU ACY1 (11761880_at) / Fold change /veh ACY1 (11761880_at) / RFU 11764098_at / Fold change /veh 11764098_at / RFU SAMD14 (11745864_x_at) / Fold change /veh SAMD14 (11745864_x_at) / RFU NPB (11741838_a_at) / Fold change /veh NPB (11741838_a_at) / RFU TMPRSS6 (11731388_a_at) / Fold change /veh TMPRSS6 (11731388_a_at) / RFU KRTAP10-2 (11738614_at) / Fold change /veh KRTAP10-2 (11738614_at) / RFU ARHGAP8 /// PRR5-ARHGAP8 (11727945_x_at) / Fold change /veh ARHGAP8 /// PRR5-ARHGAP8 (11727945_x_at) / RFU KRTAP5-7 /// NADSYN1 (11734609_at) / Fold change /veh KRTAP5-7 /// NADSYN1 (11734609_at) / RFU RASL12 (11751679_a_at) / Fold change /veh RASL12 (11751679_a_at) / RFU CDKN2B (11736163_a_at) / Fold change /veh CDKN2B (11736163_a_at) / RFU PRF1 (11729649_at) / Fold change /veh PRF1 (11729649_at) / RFU, ZNF638 /// ZNF638-IT1 / Fold change vs veh, ZNF638 /// ZNF638-IT1 / RFU, PANK3 / Fold change vs veh, PANK3 / RFU, SH3YL1 / Fold change vs veh, SH3YL1 / RFU, ZEB2 / Fold change vs veh, ZEB2 / RFU, NRIP1 / Fold change vs veh, NRIP1 / RFU, PTTG1IP / Fold change vs veh, PTTG1IP / RFU, CAPN2 / Fold change vs veh, CAPN2 / RFU, MED14 / Fold change vs veh, MED14 / RFU, SNORA58 / Fold change vs veh, SNORA58 / RFU, C1orf63 / Fold change vs veh, C1orf63 / RFU, LRRFIP1 / Fold change vs veh, LRRFIP1 / RFU, NDUFAF7 / Fold change vs veh, NDUFAF7 / RFU, SLC12A2 / Fold change vs veh, SLC12A2 / RFU, IBTK / Fold change vs veh, IBTK / RFU, ESF1 / Fold change vs veh, ESF1 / Fold change vs veh, TMEM50B / RFU, TAOK1 / Fold change vs veh, TAOK1 / RFU, ACBD3 / Fold change vs veh, ACBD3 / RFU, TMA16 / Fold change vs veh, TMA16 / RFU, RWDD3 / Fold change vs veh, RWDD3 / RFU, BCAT1 / Fold change vs veh, BCAT1 / RFU, EDEM3 / Fold change vs veh, EDEM3 / RFU, TMEM33 / Fold change vs veh, TMEM33 / RFU, WDR75 / Fold change vs veh, WDR75 / RFU, AHCTF1 / Fold change vs veh, AHCTF1 / RFU, TFRC / Fold change vs veh, TFRC / RFU, ZDHHC17 / Fold change vs veh, ZDHHC17 / RFU, NOM1 / Fold change vs veh, NOM1 / RFU, ARL8B / Fold change vs veh, ARL8B / RFU, ZBTB11 / Fold change vs veh, ZBTB11 / RFU, TAMM41 / Fold change vs veh, TAMM41 / RFU, KIAA1704 /// LOC100996395 / Fold change vs veh, KIAA1704 /// LOC100996395 / RFU, ING1 / Fold change vs veh, ING1 / RFU, TRMT61B / Fold change vs veh, TRMT61B / RFU, FUBP3 / Fold change vs veh, FUBP3 / RFU, TP53 / Fold change vs veh, TP53 / RFU, TNKS2 / Fold change vs veh, TNKS2 / RFU, ZFP14 / Fold change vs veh, ZFP14 / RFU, ACTR2 / Fold change vs veh, ACTR2 / RFU, PPP3R1 / Fold change vs veh, PPP3R1 / RFU, PIK3R1 / Fold change vs veh, PIK3R1 / RFU, HNRNPA1 / Fold change vs veh, HNRNPA1 / RFU, RNF170 / Fold change vs veh, RNF170 / RFU, ZNF28 / Fold change vs veh, ZNF28 / RFU, RNGTT / Fold change vs veh, RNGTT / RFU, OGT / Fold change vs veh, OGT / RFU, BRD1 / Fold change vs veh, BRD1 / RFU, MARS / Fold change vs veh, MARS / RFU, ZNF655 / Fold change vs veh, ZNF655 / RFU, FAHD1 / Fold change vs veh, FAHD1 / RFU, BDP1 / Fold change vs veh, BDP1 / RFU, LRRCC1 / Fold change vs veh, LRRCC1 / RFU, ARID1A / Fold change vs veh, ARID1A / RFU, ZNF146 / Fold change vs veh, ZNF146 / RFU, ZNF330 / Fold change vs veh, ZNF330 / RFU, GPN3 / Fold change vs veh, GPN3 / RFU, C9orf123 / Fold change vs veh, C9orf123 / RFU, N4BP2L2 / Fold change vs veh, N4BP2L2 / RFU, ARFIP1 / Fold change vs veh, ARFIP1 / RFU, FAM179B / Fold change vs veh, FAM179B / RFU, BCL10 / Fold change vs veh, BCL10 / RFU, UHRF1BP1L / Fold change vs veh, UHRF1BP1L / RFU, BET1 / Fold change vs veh, BET1 / RFU, CNOT2 / Fold change vs veh, CNOT2 / RFU, ZNF268 / Fold change vs veh, ZNF268 / Fold change vs veh, ZNF507 / RFU, DGCR2 / Fold change vs veh, DGCR2 / RFU, WDSUB1 / Fold change vs veh, WDSUB1 / Fold change vs veh, HSP90B1 /// MIR3652 / RFU, ADSS / Fold change vs veh, ADSS / RFU, GK / Fold change vs veh, GK / RFU, ZNF148 / Fold change vs veh, ZNF148 / RFU, TAF9 / Fold change vs veh, TAF9 / RFU, SLC1A5 / Fold change vs veh, SLC1A5 / RFU, SLMO2 / Fold change vs veh, SLMO2 / RFU, ABCC4 / Fold change vs veh, ABCC4 / RFU, LOC101060439 /// RAP1B / Fold change vs veh, LOC101060439 /// RAP1B / RFU, RFX7 / Fold change vs veh, RFX7 / RFU, GTPBP10 / Fold change vs veh, GTPBP10 / RFU, CNEP1R1 / Fold change vs veh, CNEP1R1 / RFU, BIVM-ERCC5 /// ERCC5 / Fold change vs veh, BIVM-ERCC5 /// ERCC5 / RFU, ILF3 / Fold change vs veh, ILF3 / RFU 11762660_at / Fold change /veh 11762660_at / RFU VCAN (11757783_s_at) / Fold change /veh VCAN (11757783_s_at) / RFU DDX43 (11728927_at) / Fold change /veh DDX43 (11728927_at) / RFU KRT8 (11758188_x_at) / Fold change /veh KRT8 (11758188_x_at) / RFU NKD1 (11759106_at) / Fold change /veh NKD1 (11759106_at) / RFU SRD5A1 (11742802_a_at) / Fold change /veh SRD5A1 (11742802_a_at) / RFU TPSAB1 /// TPSB2 (11721975_s_at) / Fold change /veh TPSAB1 /// TPSB2 (11721975_s_at) / RFU GSTM3 (11746129_a_at) / Fold change /veh GSTM3 (11746129_a_at) / RFU IL23R (11737362_x_at) / Fold change /veh IL23R (11737362_x_at) / RFU TMEM51 (11727254_a_at) / Fold change /veh TMEM51 (11727254_a_at) / RFU PIWIL2 (11732686_x_at) / Fold change /veh PIWIL2 (11732686_x_at) / RFU ORM1 (11744905_x_at) / Fold change /veh ORM1 (11744905_x_at) / RFU CCDC152 (11743942_at) / Fold change /veh CCDC152 (11743942_at) / RFU ECM1 (11717891_a_at) / Fold change /veh ECM1 (11717891_a_at) / RFU IL23R (11748794_a_at) / Fold change /veh IL23R (11748794_a_at) / RFU TNFAIP8L3 (11732012_x_at) / Fold change /veh TNFAIP8L3 (11732012_x_at) / RFU MBOAT4 (11741988_at) / Fold change /veh MBOAT4 (11741988_at) / RFU 11764193_at / Fold change /veh 11764193_at / RFU TMEM53 (11763286_at) / Fold change /veh TMEM53 (11763286_at) / RFU MAGEB2 (11727129_at) / Fold change /veh MAGEB2 (11727129_at) / RFU TMEM200A (11744735_a_at) / Fold change /veh TMEM200A (11744735_a_at) / RFU CCDC152 (11751479_a_at) / Fold change /veh CCDC152 (11751479_a_at) / RFU FAM211A (11726209_a_at) / Fold change /veh FAM211A (11726209_a_at) / RFU RGS16 (11746705_a_at) / Fold change /veh RGS16 (11746705_a_at) / RFU VCAN (11755009_s_at) / Fold change /veh VCAN (11755009_s_at) / RFU RHOB (11743442_s_at) / Fold change /veh RHOB (11743442_s_at) / RFU RGS16 (11720943_a_at) / Fold change /veh RGS16 (11720943_a_at) / RFU RGS16 (11720944_at) / Fold change /veh RGS16 (11720944_at) / RFU, VPS4B / Fold change vs veh, VPS4B / RFU, CREB1 / Fold change vs veh, CREB1 / RFU, DNAJC13 / Fold change vs veh, DNAJC13 / RFU, GNAQ / Fold change vs veh, GNAQ / RFU, CDK5R1 / Fold change vs veh, CDK5R1 / RFU, ZRANB3 / Fold change vs veh, ZRANB3 / RFU, CUL4A / Fold change vs veh, CUL4A / RFU, CCNY / Fold change vs veh, CCNY / RFU, UFL1 / Fold change vs veh, UFL1 / RFU, COG3 / Fold change vs veh, COG3 / RFU, DIAPH2 / Fold change vs veh, DIAPH2 / RFU, SKA2 / Fold change vs veh, SKA2 / RFU, AFF3 / Fold change vs veh, AFF3 / RFU, LMF1 / Fold change vs veh, LMF1 / RFU, IPO11 / Fold change vs veh, IPO11 / RFU, DFFB / Fold change vs veh, DFFB / RFU, FOXP1 / Fold change vs veh, FOXP1 / RFU, CARD8 / Fold change vs veh, CARD8 / RFU, STRN3 / Fold change vs veh, STRN3 / RFU, ADK / Fold change vs veh, ADK / RFU, RASSF2 / Fold change vs veh, RASSF2 / RFU, WIPF1 / Fold change vs veh, WIPF1 / RFU, LARP1B / Fold change vs veh, LARP1B / RFU, RASA1 / Fold change vs veh, RASA1 / RFU, RB1 / Fold change vs veh, RB1 / RFU, PPFIA1 / Fold change vs veh, PPFIA1 / RFU, MAT2A / Fold change vs veh, MAT2A / RFU, CCT5 / Fold change vs veh, CCT5 / RFU, WDR92 / Fold change vs veh, WDR92 / RFU, CUX1 / Fold change vs veh, CUX1 / RFU, TTC7A / Fold change vs veh, TTC7A / RFU, TMEM135 / Fold change vs veh, TMEM135 / RFU, DEPTOR / Fold change vs veh, DEPTOR / RFU, CPM / Fold change vs veh, CPM / RFU, DNAJB6 / Fold change vs veh, DNAJB6 / RFU, CACNA2D3 / Fold change vs veh, CACNA2D3 / RFU, DTX4 / Fold change vs veh, DTX4 / RFU, TFCP2 / Fold change vs veh, TFCP2 / RFU, GMCL1 /// GMCL1P1 / Fold change vs veh, GMCL1 /// GMCL1P1 / RFU, AEBP2 / Fold change vs veh, AEBP2 / RFU, SNHG1 /// SNORD22 /// SNORD25 /// SNORD26 /// SNORD27 /// SNORD28 /// SNORD29 /// SNORD31 / Fold change vs veh, SNHG1 /// SNORD22 /// SNORD25 /// SNORD26 /// SNORD27 /// SNORD28 /// SNORD29 /// SNORD31 / Fold change (Aza/veh), C12orf56 (ProbeSet 11735607_a_at) / Fold change (ACY-1035/veh), C12orf56 (ProbeSet 11735607_a_at) / Fold change (Aza/veh), FGFR1OP (ProbeSet 11751329_s_at) / Fold change (ACY-1035/veh), FGFR1OP (ProbeSet 11751329_s_at) / Fold change (Aza/veh), VPS36 (ProbeSet 11739960_a_at) / Fold change (ACY-1035/veh), VPS36 (ProbeSet 11739960_a_at) / RFU SYPL1 (11715823_x_at) / Fold change /veh SYPL1 (11715823_x_at) / RFU IGFBP7 (11715501_s_at) / Fold change /veh IGFBP7 (11715501_s_at) / RFU REEP3 (11722064_at) / Fold change /veh REEP3 (11722064_at) / RFU IGLL1 (11728026_x_at) / Fold change /veh IGLL1 (11728026_x_at): dose or concentration left out as unconfirmed. The following applies: ProbeSet 11743362_s_at; LIST B.

The structures appear in SMILES notation.

For `Nc1ncn([C@@H]2O[C@H](CO)[C@@H](O)[C@H]2O)c(=O)n1` [azacitidine], the “RFU, ADSS” value worked out at 624.28 RFU.
